# Reference: US5866397A, “Human protein tyrosine phosphatase OB protein” (Merck & Co., Inc., priority 1997, dated 1999)
# “Also recorded” adds a separate entry of the source. Read-outs that look alike come from different tables or passages of the source.
# T1: PTP-OB (Homo sapiens, UniProt Q13332)
# T1 construct: we expressed the cytoplasmic domain of PTP-OB and PTPε in bacteria as a GST-fusion protein; made in house; host or cells: bacteria (vector pGEX-2TX, Pharmacia)
# T1 sequence (Q13332 1303-1928 isoform Q13332-3 C1437R/N1685K): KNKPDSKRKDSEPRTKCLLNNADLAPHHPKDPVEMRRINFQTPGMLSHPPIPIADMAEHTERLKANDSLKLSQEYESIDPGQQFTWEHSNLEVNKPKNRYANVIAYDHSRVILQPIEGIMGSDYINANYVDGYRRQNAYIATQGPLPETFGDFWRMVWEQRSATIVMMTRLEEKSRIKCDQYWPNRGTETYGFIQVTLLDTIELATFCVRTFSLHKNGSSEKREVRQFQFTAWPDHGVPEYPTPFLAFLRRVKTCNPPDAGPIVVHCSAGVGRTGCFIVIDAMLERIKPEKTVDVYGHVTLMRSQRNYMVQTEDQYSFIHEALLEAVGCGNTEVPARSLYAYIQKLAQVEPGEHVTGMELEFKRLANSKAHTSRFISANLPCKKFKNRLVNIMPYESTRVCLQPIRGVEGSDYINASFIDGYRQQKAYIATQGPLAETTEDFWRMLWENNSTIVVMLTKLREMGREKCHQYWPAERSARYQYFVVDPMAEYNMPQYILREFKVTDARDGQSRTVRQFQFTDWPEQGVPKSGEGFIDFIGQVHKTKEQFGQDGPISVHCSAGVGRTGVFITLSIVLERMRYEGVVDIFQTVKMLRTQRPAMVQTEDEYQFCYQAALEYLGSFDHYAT
# Assays:
# [1] = test system: multinucleated TRAP positive osteoclast-like cells; test: cells; type: cell-based, mouse
# rat osteoclasts = test: cells; type: cell-based
# PTP-OB = biological target: T1, PTP-OB; test: PTP enzymatic assay with recombinant GST-PTP-OB fusion protein (FDP substrate); type: biochemical; conditions: pH 5.65, FIG. 8
# MB1.8 cells = test: Osteoblast proliferation (thymidine incorporation) in mouse calvaria derived MB1.8 cells; type: cell-based; conditions: micromolar concentrations
# [2] = test system: mononucleated TRAP positive cells; type: cell-based, mouse
# PTPε = PTPε (Mus musculus, UniProt P49446); test: PTP enzymatic assay with recombinant GST-PTPε fusion protein (FDP substrate)
# [3] = test system: osteoblasts and bone marrow cells
# bone cells / osteoblasts = conditions: cited from earlier work
# bone resorption = conditions: organ cultures; Krieger and Tashjian; cited from earlier work
# [4] = substrate: O=C1OC2(c3ccc(OP(=O)(O)O)cc3Oc3cc(OP(=O)(O)O)ccc32)c2ccccc21; test: purified protein, by the assay type; conditions: other: FDP as substrate of GST-PTPε; pH 5.65
molecule,measurement,setting,value
NCCCC(O)(P(=O)(O)O)P(=O)(O)O [alendronate],inhibition of formation of multinucleated TRAP positive cells,[1],completely inhibited
same,inhibition at 10 µM,"rat osteoclasts; Rattus norvegicus, Osteoclast, 24 h, read-out: reduction of the number of resorption pits",80%
same,IC50,PTP-OB,200 nM
same,thymidine incorporation (mitogenesis) of quiescent osteoblasts,MB1.8 cells,stimulated thymidine incorporation
same,development of mononucleated TRAP positive cells,[2],did not block
CC(O)(P(=O)(O)O)P(=O)(O)O [etidronate],thymidine incorporation (mitogenesis) of quiescent osteoblasts,MB1.8 cells,stimulated thymidine incorporation
same,IC50,PTPε,~400 nM
COC1=C2C[C@@H](C)C[C@H](OC)[C@H](O)[C@@H](C)/C=C(\C)[C@H](OC(N)=O)[C@@H](OC)/C=C\C=C(/C)C(=O)NC(=CC1=O)C2=O [geldanamycin],inhibition of formation of multinucleated TRAP positive cells,[1],complete inhibition
same,"inhibition of osteoclast formation, in words",[1],potent inhibitor
same,IC50,"[1]; Mus musculus, Osteoclast-like, read-out: IC50, osteoclast formation",0.05 µg/mL
same,appearance/development of mononuclear TRAP positive cells,[2],completely blocked; also recorded: inhibited the development of mononuclear TRAP positive cells
[O]=[V]([O-])([O-])[O-] [orthovanadate],additional effect when added at earlier days of co-culture,[1],small additional effect
same,inhibition of formation of multinucleated TRAP positive cells,[1],completely inhibited
same,"inhibition of formation of multinucleated TRAP positive cells, in words",[1],completely inhibited
same,inhibition of formation of multinucleated osteoclastic cells when added at any time up to day six,[1],≥ 90%
same,"inhibition of formation of the fused TRAP positive cells, in words",[1],markedly inhibited
same,block of formation of multinucleated TRAP positive cells when added at day six of co-culture,"[1]; bone marrow/osteoblast co-culture, 1440 min",80%
same,IC50,"[1]; read-out: IC50, formation of multinucleated TRAP positive cells",2000 nM
same,"inhibition of bone resorption, in words",rat osteoclasts,potent inhibitors
same,reduction of the number of resorption pits,"rat osteoclasts; osteoclasts on bone slices, 1440 min, 10 µM",80%
same,IC50,"rat osteoclasts; read-out: IC50, bone resorption",2000 nM
same,thymidine incorporation (mitogenesis) of quiescent osteoblasts,MB1.8 cells,stimulated thymidine incorporation
same,development of mononucleated TRAP positive cells,[2],did not block
same,formation of mononucleated TRAP positive cells,[2],produced mononucleated TRAP positive cells
same,effects on the co-cultured osteoblasts,[3],no ill effects
same,toxicity for osteoblasts or bone marrow cells,[3],no apparent toxicity
same,bone cell / osteoblast proliferation,bone cells / osteoblasts,can stimulate osteoblast proliferation; also recorded: stimulated cell proliferation; also recorded: stimulation of cell proliferation
same,stimulation of bone resorption induced by PTH,bone resorption,inhibited
PTPε (Mus musculus) (protein) RFRKQRKAVVSSNDKKMPNGILEEQEQQRVMLLSRSPSGPKKFFPIPVEHLEEEIRVRSADDCKRFREEFNSLPSGHIQGTFELANKEENREKNRYPNILPNDHCRVILSQVDGIPCSDYINASYIDGYKEKNKFIAAQGPKQETVNDFWRMVWEQRSATIVMLTNLKERKEEKCYQYWPDQGCWTYGNIRVCVEDCVVLVDYTIRKFCIHPQLPDSCKAPRLVSQLHFTSWPDFGVPFTPIGMLKFLKKVKTLNPSHAGPIVVHCSAGVGRTGTFIVIDAMMDMIHSEQKVDVFEFVSRIRNQRPQMVQTDVQYTFIYQALLEYYLYGDTELDVSSLERHLQTLHSTATHFDKIGLEEEFRKLTNVRIMKENMRTGNLPANMKKARVIQIIPYDFNRVILSMKRGQEFTDYINASFIDGYRQKDYFMATQGPLAHTVEDFWRMVWEWKSHTIVMLTEVQEREQDKCYQYWPTEGSVTHGDITIEIKSDTLSEAISVRDFLVTFKQPLARQEEQVRMVRQFHFHGWPEVGIPAEGKGMIDLIAAVQKQQQQTGNHPITVHCSAGAGRTGTFIALSNILERVKAEGLLDVFQAVKSLRLQRPHMVQTLEQYEFCYKVVQDFIDIFSDYANFK,Km,[4],70 µM
